Values after ≈ are worked out from the molar mass of the structure shown. Values joined by “and” are separate entries in the source; they are usually repeats but may differ in a detail not shown here. Equal entries are not always repeated.
Legend:
Format in all cases: physicochemical
[1] = Solubility of polymorphic forms in physiologically relevant media and final pH
Source text: Solubility data of the several polymorphic forms of Compound 1 in physiologically relevant media and the final pH of these solutions are summarized in the following tables.

[2] = Solubility determination (15 minutes at room temperature, HPLC)
Description: 1 mL of buffer or of ultrapure (resistivity≥18.2 Mf cm) water was added to a pre-weighed, approximately twenty milligram aliquot of the substance to be measured. The resulting suspensions were stirred for 15 minutes at room temperature with magnetic stirrers. The suspensions were centrifuged and filtered through Millipore 0.2 μm PVDF filters, and the concentration of each filtrate (i.e., saturated solution) was determined using a general HPLC method. The pH of each saturated solution was measured with a Metrohm 713 pH meter.
To assess whether Form K and Form K′ are likely to have different bioavailabilities, comparative solubility measurements were carried out in physiologically relevant media. Samples of Form K and Form K′ were separately equilibrated in pure water, pH 2.0 buffer, and pH 6.8 buffer for fifteen minutes, and the solids were then separated from the solvents. The concentration of the compound in the filtrate (i.e., the solubility) was assessed in each case, and the solid residues were also monitored by powder X-ray diffraction. All six solid residues correspond to Form K, confirming that Form K′ rapidly incorporates water into its lattice when suspended in an aqueous environment even when the solubility is low. While the solubilities in pure water and at pH 6.8 were below the limit of quantitation of 0.0001 mg/mL, the solubilities at pH 2.0 could be measured. […] Thus, the bioavailabilities of the two forms are expected to be similar, and precise control of the water content (and, thereby, the solid form) is presumably not necessary from a scientific point of view. Given that the critical water activity is in the range aH2O=0.11-0.17, the hydrated Form K is likely to be the more easily stabilized of the two forms under ambient laboratory conditions.

[3] = Storage at controlled relative humidities (Form K / Form K′)
Source text: It was noticed that after Form K was dried, the XRPD peaks of Form K shifted to a higher value and the resulting XRPD pattern is called Form K′. To further understand the relationships between the two forms, free base Form K and Form K′ were placed on XRPD sample holders and stored in a closed Jars with saturated salt solutions for RH controls at ambient temperature, respectively. […] The XRPD diffractograms of the samples after 2-day storage are presented in FIG. 132 and FIG. 133, respectively. […] Since the peaks of Form K shifted to higher 2-theta value as Form K loses water molecules to Form K′, Form K and Form K′ are on a continuum.

[4] = Dynamic vapor sorption / hygroscopicity; conditions: for hygroscopicity: DVS, class by mass gain at 85% r.h.; for solid form after DVS cycle: after the DVS humidity cycle
Description: Projekt Messtechnik (now ProUmid) SPS11-100n. The sample was placed on an aluminum holder on top of a microbalance and allowed to equilibrate at 50% r.h. before starting one of the following pre-defined humidity programs (1 cycle): • hold 2 h at 50% r.h., • decrease humidity −5% r.h. h^−1 for 10 h (i.e., from 50% r.h. to 0% r.h.), • hold 5 h at […]., • increase humidity +5% r.h. h^−1 for 19 h (i.e., from 0% r.h. to 95% r.h.), • hold 5 h at 95% r.h., • decrease humidity −5% r.h. h^−1 for 9 h (i.e., from 95% r.h. to 50% r.h.), • hold 2 h at 50% r.h. or • hold 2 h at 50% r.h., • increase humidity +5% r.h. h^−1 for 9 h (i.e., from 50% r.h. to 95% r.h.), • hold 5 h at 95% r.h., • decrease humidity −5% r.h. h^−1 for 19 h (i.e., from 95% r.h. to 0% r.h.), • hold 5 h at 0% r.h., • increase humidity +5% r.h. h^−1 for 10 h (i.e., from 0% r.h. to 50% r.h.), • hold 2 h at 50% r.h.
The hygroscopicity was classified based on the mass gain at 85% r.h. relative to the initial mass as follows: deliquescent (sufficient water adsorbed to form a liquid), very hygroscopic (mass increase of […]), hygroscopic (mass increase of <15% but ≥2%), slightly hygroscopic (mass increase of <2% but ≥0.2%), or non-hygroscopic (mass increase of <0.2%).

[5] = Critical water activity of hydrochloride Form L and Form N; conditions: for form after slurry (XRPD): water/acetone
Description: Determination of critical water activity for Form L and Form N: 50 mg of Form L was suspended in 0.5-1 ml of water/acetone solution with specific water activity. The solutions were stirred at RT or 60′° C. Form conversion was monitored by XRPD over 2 weeks.

[6] = Solid state stability under accelerated storage conditions
Description: Form A was not isolated directly as a wet cake but formed only upon drying of Form E in polymorphism studies. […] Small quantities of Form A were generated by dissolving a crude Compound 1 in MEK at high temperature, followed by fast cooling to room temperature, filtration and drying. DSC and TGA data were obtained for samples of Form A and following storage for 1 week at 60° C. and 60° C./75% RH. […] TGA analysis confirmed that this broad endotherm was most likely due to moisture uptake under the accelerated storage conditions. Most of the weight loss of 0.82% in this sample occurred in a single step at less than 75° C. By contrast, weigh loss was a two-step process at the initial time point. […] The residual solvent initially present in the sample was lost upon storage of the sample at 60° C. (0.13% weight loss between 25 to 150° C.).
Form B could be obtained from a process involving methyl acetate. […] HPLC traces were taken of the samples of Form B and following storage for 2 week at 60° C. and 60° C./75% RH. […] Several small degradation products were seen to grow especially in the sample stored at 60° C. Chiral instability was also observed in the sample stored at 60° C./75% RH.
Physical stability: Visually, all samples of Form K were white colored powder with no apparent change in color in the samples stored under accelerated conditions (40° C., 40° C./75% RH, 60° C., 60° C./75% RH and sample stored in light chamber in clear vials exposed to light and covered in aluminum foil) for 14 d relative to the sample stored refrigerated and under ambient conditions.
Solid state chemical stability: HPLC analysis were performed on Form K samples stored under the accelerated stability conditions. […] Based on the HPLC analysis data, there is a measurable but small change in the chemical stability of Form K under the accelerated conditions of temperature, humidity and exposure to light over the 14 d period.
Solid state chiral stability: Chiral stability of Form K samples stored under accelerated stability conditions was tested. There was ˜2.9% of the R-enantiomer (97.1 area % of the active S-isomer) in the initial sample. […]
The chiral purity (area % of S-isomer) remained […] under the accelerated stability conditions.

[7] = Competitive slurry and slurry stability experiments; conditions: water, prolonged stirring
Description: Form B was obtained at room temperature while form C was obtained at 45° C. in acetone alone.
The HBr salt was largely insoluble in various buffers when 1 mg/mL slurries were prepared and the mother liquor concentration determined (by HPLC): <0.05 mg/mL in all buffers tested.

[8] = relative humidity from about 5% to about 95%

## Cl.N#Cc1ccc(N2CCN(Cc3ccc(COc4cccc5c4CN([C@H]4CCC(=O)NC4=O)C5=O)cc3)CC2)c(F)c1 [HC1 Salt]
[1]; FaSSIF
  Solubility: 1 µg/mL
[1]; FeSSiF
  Solubility: 94 µg/mL
[1]; SGF with pepsin
  Solubility: 295 µg/mL
[1]; pH 1 buffer HC1/NaC1
  Solubility: 71 µg/mL
[1]; pH 3 buffer (phosphate)
  Solubility: 149 µg/mL
[1]; pH 4 buffer (acetate)
  Solubility: 124 µg/mL
[1]; pH 5 buffer (acetate)
  Solubility: 17 µg/mL
[1]; solubility sample in FaSSIF
  Final pH: 5.96
[1]; solubility sample in FeSSiF
  Final pH: 4.99
[1]; solubility sample in SGF with pepsin
  Final pH: 1.28
[1]; solubility sample in pH 1 buffer HC1/NaC1
  Final pH: 1.05
[1]; solubility sample in pH 3 buffer (phosphate)
  Final pH: 3.05
[1]; solubility sample in pH 4 buffer (acetate)
  Final pH: 4.00
[1]; solubility sample in pH 5 buffer (acetate)
  Final pH: 4.83

## N#Cc1ccc(N2CCN(Cc3ccc(COc4cccc5c4CN([C@H]4CCC(=O)NC4=O)C5=O)cc3)CC2)c(F)c1 [Form K′ of a free base of Compound 1]
[2]; pH 2.0 buffer, fifteen minutes
  solubility at pH 2.0: 0.93 mg/mL
[2]; pure water, pH 2.0 buffer and pH 6.8 buffer, fifteen minutes
  solid residue after solubility measurement (powder X-ray diffraction): Form K
[3]; 22% RH or above, ambient temperature
  form conversion on storage (XRPD): converts to K
[3]; stored at 17% r.h. and r.t. for 2.5 d
  PXRD result after storage: Form K

## Cl.N#Cc1ccc(N2CCN(Cc3ccc(COc4cccc5c4CN(C4CCC(=O)NC4=O)C5=O)cc3)CC2)c(F)c1 (centres unmarked)
[4]
  hygroscopicity: hygroscopic (hygroscopic (mass increase of <15% but ≥2%))
  solid form after DVS cycle: remains as Form A
[4]; [8]
  DVS mass increase: about 11.7%
[2]; water, sample changed (solid-form transformation or gel), value may not represent the initial form
  aqueous solubility for the free base component: 4.1 mg/mL and 7.2 mM

## Cl.N#Cc1ccc(N2CCN(Cc3ccc(COc4cccc5c4CN([C@H]4CCC(=O)NC4=O)C5=O)cc3)CC2)c(F)c1
[5]; 60° C.
  critical water activity (Form L to Form N): 0.4-0.5
[5]; RT
  critical water activity (Form L to Form N): 0.2-0.4
[5]; Aw 0.1, RT
  form after slurry (XRPD): Form L
[5]; Aw 0.2, 60° C.
  form after slurry (XRPD): Form L
[5]; Aw 0.2, RT
  form after slurry (XRPD): Form L
[5]; Aw 0.3, 60° C.
  form after slurry (XRPD): Form L
[5]; Aw 0.3, RT
  form after slurry (XRPD): Form AA
[5]; Aw 0.4, 60° C.
  form after slurry (XRPD): Form L
[5]; Aw 0.4, RT
  form after slurry (XRPD): Form N
[5]; Aw 0.5, 60° C.
  form after slurry (XRPD): Form N
[5]; Aw 0.5, RT
  form after slurry (XRPD): Form N
[4]
  hygroscopicity: slightly hygroscopic (slightly hygroscopic (mass increase of <2% but ≥0.2%))
  solid form after DVS cycle: remains as Form L
[4]; relative humidity from about 0% to about 95%
  DVS mass increase: about 0.6%

## N#Cc1ccc(N2CCN(Cc3ccc(COc4cccc5c4CN([C@H]4CCC(=O)NC4=O)C5=O)cc3)CC2)c(F)c1.O=S(=O)(O)c1ccccc1 [Form B of a besylate salt of Compound 1]
[6]; 40° C., 40° C./75% RH, 60° C., 60° C./75% RH, and under light for 14 days
  physical stability (XRPD): physically stable
[6]; accelerated stability conditions, 14 days
  chiral purity (area % of S-isomer): above 99%
[6]; accelerated stability conditions, 14 days, peak grows with temperature and humidity
  Chemical purity (HPLC) on storage: showed degradation peak
[4]
  hygroscopicity: slightly hygroscopic (slightly hygroscopic (mass increase of <2% but ≥0.2%))
  solid form after DVS cycle: remains as Form B
[4]; [8]
  DVS mass increase: about 1.75%

## N#Cc1ccc(N2CCN(Cc3ccc(COc4cccc5c4CN([C@H]4CCC(=O)NC4=O)C5=O)cc3)CC2)c(F)c1 [Form C of a free base of Compound 1]
[7]
  competitive slurry of Form C and Form K: gradual conversion of Form C to Form K
[6]; accelerated stability conditions
  physical and chemical stability: physically and chemically stable
[4]; listed as Form C
  hygroscopicity: hygroscopic (hygroscopic (mass increase of <15% but ≥2%))
[4]; relative humidity from about 5% to about 95%, listed as Form C
  DVS mass increase: about 8.3%
[1]; FaSSIF
  Solubility: 1 µg/mL (≈ 1.76 µM)
[1]; FeSSiF, listed as Form C
  Solubility: 31 µg/mL (≈ 54.6 µM)
[1]; SGF with pepsin, listed as Form C
  Solubility: 427 µg/mL (≈ 752 µM)
[1]; Water
  Solubility: <LOQ
[1]; pH 1 buffer HC1/NaC1, listed as Form C
  Solubility: 108 µg/mL (≈ 190 µM)
[1]; pH 3 buffer (phosphate), listed as Form C
  Solubility: 277 µg/mL (≈ 488 µM)
[1]; pH 4 buffer (acetate), listed as Form C
  Solubility: 65 µg/mL (≈ 115 µM)
[1]; pH 5 buffer (acetate), listed as Form C
  Solubility: 3 µg/mL (≈ 5.29 µM)
[1]; solubility sample in FaSSIF, listed as Form C
  Final pH: 6.44
[1]; solubility sample in FeSSiF, listed as Form C
  Final pH: 5.05
[1]; solubility sample in SGF with pepsin, listed as Form C
  Final pH: 1.29
[1]; solubility sample in Water, listed as Form C
  Final pH: 6.86
[1]; solubility sample in pH 1 buffer HC1/NaC1, listed as Form C
  Final pH: 1.07
[1]; solubility sample in pH 3 buffer (phosphate), listed as Form C
  Final pH: 3.31
[1]; solubility sample in pH 4 buffer (acetate), listed as Form C
  Final pH: 4.14
[1]; solubility sample in pH 5 buffer (acetate), listed as Form C
  Final pH: 5.11

## N#Cc1ccc(N2CCN(Cc3ccc(COc4cccc5c4CN([C@H]4CCC(=O)NC4=O)C5=O)cc3)CC2)c(F)c1 [Form D of a free base of Compound 1]
[4]; listed as Form D
  hygroscopicity: slightly hygroscopic (slightly hygroscopic (mass increase of <2% but ≥0.2%))
  solid form after DVS cycle: a mixture of Form B and Form E
[4]; relative humidity from about 5% to about 95%, listed as Form D
  DVS mass increase: about 3.0%

— patent US12391672B2, “Solid forms comprising (S)-4-(4-(4-(((2-(2,6-dioxopiperidin-3-yl)-1-oxoisoindolin-4-yl)oxy)methyl)benzyl)piperazin-1-yl)-3-fluorobenzonitrile and salts thereof, and compositions comprising and methods of using the same” (Celgene Corporation, priority 2019, dated 2025)
